# Results: patent publication US12521425B2, “Method of liver cancer treatment with safranal-based formulations” (priority 2019, dated 2026)
# What was measured:
# [1] = system: DEN-induced hepatic neoplasia; assay: Serum ALT and AST in DEN-induced HCC model; format: in vivo, male Wistar rats; settings: HCC rats, oral gavage 5 days a week, weeks 17-19, safranal 200 mg/kg, sorafenib 10 mg/kg, mean±SEM, n=6
# Procedure: A modified version of the protocol described by DePeralta et al. (2016) and Schiffer et al. (2005) was used here to establish the hepatocarcinogenesis model.
# On the first 15 weeks, the control PBS group was treated with 1×PBS, whereas the experimental groups were given an intraperitoneal injection (IP) of 50 mg/kg of diethylnitrosoamine (DEN, Sigma Aldrich), a widely used chemical for inducing cancer, once a week. DEN was diluted with 1×PBS. Following a one-week break (week 16), the next three weeks (weeks 17 to 19) of treatment commenced. All drugs were administrated by oral gavage. All doses were chosen according to literature (Alsaied et al., 2014; Karafakioglu et al., 2017). For the HCC+sorafenib group, the drug (Carbosynth Limited) was administered at a dose of 10 mg/kg, five days a week. For the HCC+safranal group, the drug (Sigma Aldrich) was administered at a dose of 200 mg/kg, five days a week. For the HCC+safranal+sorafenib group, the drugs were administered at a dose of 200 mg/kg safranal+10 mg/kg sorafenib, five days a week. Both safranal and sorafenib were diluted with 1×PBS and drops of Tween 80. […] After 24-hours from last treatment, the rats were euthanized by mild diethyl ether and dissected in equal conditions. Blood and whole liver were collected.
# Rats were euthanized then blood was collected by decapitation and processed for later investigation. The blood was collected in collection tubes (BD Vacutainer) and serum was separated by centrifugation at 1200× g for 10 minutes. Serum was collected and flash frozen immediately then stored at −80° C. for further analysis.
# Alanine Transaminase (ALT), and Aspartate Aminotransferase (AST) assays were performed using commercial kits (Abcam), according to the protocol provided. ALT and AST activities were measured spectrophotometrically using Epoch by BioTek.
# HepG2 cells = assay: Cell morphology, crystal violet; format: cell-based; settings: HepG2, increasing doses, 24 hours
# Procedure: Cell morphology. HepG2 were seeded at a density of 0.25×10^6 cells/well in 6-well plate. After allowing the cell to attach, HepG2 cells were treated without or with different concentrations of safranal (30, 50, 100, 500, 700 μM) for 24 hrs. After which, cells were fixed and stained with crystal violet. The morphology of the cells was assessed after being fixed and stained with 0.5% crystal violet using IX53 microscope (Olympus).
structure (smiles),measurement,setting,value
CC1=C(C=O)C(C)(C)CC=C1 [safranal],ALT,[1],"10.93 ± 0.29^b**^,c* mU/ml"
same,AST,[1],7.80 ± 2.02 mU/ml
same,morphological changes,HepG2 cells,"morphological alterations including more rounded cell shapes, cell shrinkage, and increased detachment"
